The target in the experiment is Serine/threonine-protein kinase mTOR (Homo sapiens) (UniProt P42345). The experiment in a line: mTOR FRB domain ligand binding – biophysical, NMR (AID 1648). The following applies: NMR binding to FRB domain, chemical shift.

What is called Kd is the free concentration of one partner at which half of the binding sites on the other are occupied at equilibrium, for simple one-to-one binding.

The source made the active and inactive calls. No rule for the calls is given here.

Chain of Serine/threonine-protein kinase mTOR (Homo sapiens) (P42345 2015-2114): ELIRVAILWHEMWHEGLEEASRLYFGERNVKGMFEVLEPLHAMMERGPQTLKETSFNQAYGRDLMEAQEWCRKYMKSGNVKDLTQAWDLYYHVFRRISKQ

With `CC(=O)Nc1ccc(NC(=O)c2ccncc2)cc1`, the Kd was > 4 mM (inactive).
The same measure for `OCC(O)C(O)C(O)CO` (configuration not stated): > 4 mM (inactive).
On to `O=C(O)Cn1c(C(F)(F)F)nc2ccccc21`, for which the Kd was > 4 mM (inactive).
In the case of `COC(=O)CC1C(C)(C)C(OC(C)=O)[C@@H]2[C@@H](OC(C)=O)[C@]34O[C@@]2(O)[C@]1(C)C3CC[C@]1(C)C4=CC(=O)O[C@H]1c1ccoc1` (some centres not stated) it was > 4 mM (inactive); in that of `O=C(NCN1CCOCC1)c1cccnc1`, > 4 mM (inactive); in that of `CC(C)=CC1C(CO)C1(C)C` (configuration not stated), > 4 mM (inactive).
Consider `COc1cc(C)c(S(=O)(=O)N2CCN(C)CC2)cc1C`, for which the Kd is > 4 mM (inactive).
In the case of `C=C1C2CC[C@@]3(C)[C@H](c4ccoc4)OC(=O)C[C@]13O[C@H]1CC(=O)C(C)(C)C(CC(=O)OC)C21C` (some centres not stated), the Kd was > 4 mM (inactive).
In the case of `CC1=NN2C(=N)/C(=C\c3cccs3)C(=O)N=C2S1` it was > 4 mM (inactive); in that of `O=C(O)c1ccc(Oc2ccccc2)nc1`, > 4 mM (inactive); in that of `O=C(O)CCn1c(=O)oc2ccccc21`, > 4 mM (inactive).
The same measure for `CC(=O)c1ccc[nH]1`: > 4 mM (inactive); for `O=C1CC(=O)N(c2ccccc2)C(=O)N1`: > 4 mM (inactive).
Take `CCOC(=O)c1c(-c2ccncc2)csc1N`: the Kd was > 4 mM (inactive).
Consider `COC(=O)c1oc2ccc(Cl)cc2c1NC(C)=O`, for which the Kd is > 4 mM (inactive).
Regarding `O=C1CN(c2ccccc2)CC(=O)N1`, the Kd was > 4 mM (inactive).
Take `NC(=O)CCn1c(=O)oc2ccccc21`: the Kd was > 4 mM (inactive).
In the case of `CC(=O)c1c(C)n([O-])c2ccccc2[n+]1=O` it was > 4 mM (inactive).
The same measure for `CC(=O)c1c(O)c(C)c(O)c2c1OC1=CC(=O)C(C(C)=O)C(=O)C12C` (configuration not stated): > 4 mM (inactive); for `O=[n+]1cc(C2=CC=CCC2)n([O-])c2c1CCCCC2`: > 4 mM (inactive); for `C=CC(C1=CC(=O)C=CC1=O)c1ccccc1` (configuration not stated): > 4 mM (inactive).
Turning to `CSc1nnnn1-c1cccc(O)c1`, the Kd was > 4 mM (inactive).
As for `Nn1cnn2c(SCc3ccccc3)nnc12`, the Kd was > 4 mM (inactive).
`OC[C@H]1O[C@@H](Oc2ccc(O)cc2)[C@H](O)[C@@H](O)[C@@H]1O`: the Kd is > 4 mM (inactive).
With `O=c1[nH]cc(N2CCCCC2)c(=O)[nH]1`, the Kd was > 4 mM (inactive).
As for `COc1cc(OC)c2c(c1)O[C@H](c1ccc(OC)c(OC)c1)[C@@H](O)C2`, the Kd is > 4 mM (inactive).
With `Cc1nc2[nH]onc2c2nccc(=O)c12`, the Kd was > 4 mM (inactive).
Regarding `Nc1nc(SCc2ccc3c(c2)OCO3)n[nH]1`, the Kd is > 4 mM (inactive).
Regarding `O=C(Nc1cccnc1)N1CCOCC1`, the Kd is > 4 mM (inactive).
On to `Nc1cc(=O)[nH]c(=O)n1Cc1ccco1`, for which the Kd was > 4 mM (inactive).
Regarding `CC(=O)c1cccc(NC(=O)Nc2c(C)nn(C)c2C)c1`, the Kd is > 4 mM (inactive).
For the molecule `CC(=O)c1sc(NC(=O)C=C(C)C)nc1C`, the Kd is > 4 mM (inactive).
On to `O=C(NCc1ccco1)c1cccc(F)c1`, for which the Kd was > 4 mM (inactive).
Consider `Cc1ccc(SCC(=O)N2CCOCC2)cc1`, for which the Kd was > 4 mM (inactive).
Turning to `CCC(C)C(=O)c1c(O)c(C)c2oc3c(C)c(O)c(C(=O)C(C)CC)c(O)c3c2c1O` (configuration not stated), the Kd is > 4 mM (inactive).
Consider `Cc1cc(C)n2nc(-c3cccnc3)nc2n1`, for which the Kd is > 4 mM (inactive).
On to `Nc1cccc(NC(=O)c2ccco2)c1`, for which the Kd was > 4 mM (inactive).
As to `COc1ccc2c(c1OC)C(=O)O[C@@H]2[C@@H]1c2cc3c(cc2CCN1C)OCO3`, the Kd was > 4 mM (inactive).
Take `NS(=O)(=O)c1ccc(N=Cc2cccs2)cc1`: the Kd was > 4 mM (inactive).
As to `CN1CCN(CC(O)c2ccccc2)CC1` (configuration not stated), the Kd is > 4 mM (inactive).
For `O=C1NC(=S)N/C1=C\c1ccccc1F`, the Kd is > 4 mM (inactive).
As to `Cc1nnsc1C(=O)Nc1ccc(C(N)=O)cc1`, the Kd is > 4 mM (inactive).
For `CC(=O)Cc1nsc(NC(=O)c2ccc(C)cc2)n1`, the Kd was > 4 mM (inactive).
Regarding `Cc1cc(=O)oc2cc3c(cc12)OCCO3`, the Kd is > 4 mM (inactive).
In the case of `Cc1ccc(N2NC(=O)CC2=O)cc1C`, the Kd is > 4 mM (inactive).
For the molecule `O=c1c2ccccc2nc2n1CCC2O` (configuration not stated), the Kd is > 4 mM (inactive).
Take `Cc1cc(C(F)(F)F)nn1CC(N)=O`: the Kd was > 4 mM (inactive).
For `O=C(CN1CCOCC1)Nc1nccs1`, the Kd is > 4 mM (inactive).
For `CNc1nnc(Cc2csc(N)n2)s1`, the Kd is > 4 mM (inactive).
As for `O=C(NCc1ccccn1)c1ccccc1Cl`, the Kd is > 4 mM (inactive).
Take `CNCc1ccco1`: the Kd was > 4 mM (inactive).
For `Cc1ccc2cccc(OC(=O)N3CCCC3)c2n1`, the Kd was > 4 mM (inactive).
Consider `CC(=O)O[C@H]1C(=O)[C@@]2(C)C([C@H](OC(=O)c3ccccc3)[C@]3(O)C[C@H](OC(=O)[C@H](O)[C@@H](NC(=O)c4ccccc4)c4ccccc4)C(C)=C1C3(C)C)[C@]1(OC(C)=O)CO[C@@H]1C[C@@H]2O` (some centres not stated), for which the Kd is > 4 mM (inactive).
For the molecule `Cc1cc(=O)[nH]c2ccccc12`, the Kd is > 4 mM (inactive).
In the case of `O=C(O)c1ccc(NCc2cccnc2)cc1`, the Kd was > 4 mM (inactive).
For `COC1C(O)C(O)C(O)[C@@H](O)C1O` (some centres not stated), the Kd is > 4 mM (inactive).
For the molecule `C[C@]12C=CC(=O)C=C1CCC1C2CC[C@]2(C)C(=O)CCC12` (some centres not stated), the Kd was > 4 mM (inactive).
Regarding `Nc1ccc2c(c1)N1CCN=C1S2`, the Kd is > 4 mM (inactive).
The same measure for `CN1CCN(CC(=O)NC2CCCCC2)CC1`: > 4 mM (inactive); for `CC1CN(C2=NCCN2)CC(C)O1` (configuration not stated): > 4 mM (inactive).
For the molecule `Cc1nc2c(=O)[nH]c3ccccc3c2o1`, the Kd is > 4 mM (inactive).
Regarding `Cc1ccc(N)nc1`, the Kd is > 4 mM (inactive).
The same measure for `OCC1CCCC1O` (configuration not stated): > 4 mM (inactive).
`O=C1CSC(=O)N1c1cccc(O)c1`: the Kd was > 4 mM (inactive).
In the case of `CC(=O)Oc1c2c(c(CC=C(C)C)c3c1C(=O)C1=C[C@@H]4CC5C(C)(C)OC(C/C=C(\C)C(=O)O)(C4=O)[C@@]15O3)OC(C)(CCC=C(C)C)C=C2` (some centres not stated), the Kd was > 4 mM (inactive).
In the case of `CC(=O)NCCc1cc2ccc(C)c(C)c2[nH]c1=O` it was > 4 mM (inactive); in that of `OC[C@H]1O[C@@H](n2cnc3c(NCc4ccco4)ncnc32)[C@H](O)[C@@H]1O`, > 4 mM (inactive).
Take `Nc1ccc(CN2CCOCC2)cc1`: the Kd is > 4 mM (inactive).
In the case of `Cc1cccc(C)c1N1C(=O)CCC1=O` it was > 4 mM (inactive).
As for `CC(C)NS(=O)(=O)c1ccc(N)cc1`, the Kd is > 4 mM (inactive).
Turning to `CCn1cnc2scc(-c3ccccc3)c2c1=O`, the Kd is > 4 mM (inactive).
On to `O=C(NC1=NCCS1)c1ccc2snnc2c1`, for which the Kd was > 4 mM (inactive).
For the molecule `O=C(Nc1ccon1)c1csc2ccccc12`, the Kd was > 4 mM (inactive).
The same measure for `COC(=O)Cc1cccc(OC)c1`: > 4 mM (inactive); for `Cc1nc2ccc(NC(=O)N3CCSCC3)cc2s1`: > 4 mM (inactive).
On to `CN1CCC(NC(=O)C2CCCO2)CC1` (configuration not stated), for which the Kd was > 4 mM (inactive).
The same measure for `C=CCSc1[nH]c(=O)cc(C)c1C(N)=O`: > 4 mM (inactive).
On to `COc1ccccc1N1C(=N)SCC1=O`, for which the Kd was > 4 mM (inactive).
As to `COc1c(C)c2c(c(O)c1C/C=C(\C)CCC(=O)O)C(=O)OC2`, the Kd is > 4 mM (inactive).
For the molecule `CN(C(N)=O)C1(C)CCS(=O)(=O)C1` (configuration not stated), the Kd is > 4 mM (inactive).
On to `OCc1snnc1-c1ccccc1`, for which the Kd is > 4 mM (inactive).
As for `CC(=O)CNc1cc(CNC(C)=O)c(C)cc1C`, the Kd is > 4 mM (inactive).
In the case of `C=CC(=O)N1CC2CC(C1)c1cccc(=O)n1C2` (configuration not stated) it was > 4 mM (inactive).
The same measure for `O=C(c1cccnc1Cl)N1CCOCC1`: > 4 mM (inactive); for `OCc1nccn1Cc1ccccc1`: > 4 mM (inactive).
Consider `Cc1ccc(N2CCN(C(=O)c3ccccc3)CC2)c(C)c1`, for which the Kd was > 4 mM (inactive).
On to `C[N+](C)(C)CC(=O)[O-]`, for which the Kd is > 4 mM (inactive).
`CC1(C)CC[C@]2(C)CC[C@]3(C)C(=CCC4[C@@]5(C)CC[C@H](O)C(C)(C)C5CC[C@]43C)C2C1` (some centres not stated): the Kd is > 4 mM (inactive).
For `COc1ncccc1N`, the Kd is > 4 mM (inactive).
With `N#Cc1cnn2c(C(F)(F)F)cc(C(F)(F)F)nc12`, the Kd was > 4 mM (inactive).
Take `S=C(Nc1ccc2nccnc2c1)N1CCOCC1`: the Kd was > 4 mM (inactive).
As to `O=C(Nc1ccccn1)C(=O)N1CCCC1`, the Kd was > 4 mM (inactive).
The same measure for `O=C(c1cccs1)N1CCCc2ccccc21`: > 4 mM (inactive).
For the molecule `OC/C=C/c1ccc(O)c(O)c1`, the Kd was > 4 mM (inactive).
Regarding `Cc1ccccc1NC(=O)c1ccccc1`, the Kd was > 4 mM (inactive).
Regarding `N#CCSc1nnc2ccc3ccccc3n12`, the Kd is > 4 mM (inactive).
Regarding `CC1=C(/C=C/C(C)=C/C=C/C(C)=C/C=C/C=C(C)/C=C/C=C(C)/C=C/C2=C(C)CCCC2(C)C)C(C)(C)CCC1`, the Kd was > 4 mM (inactive).
With `COc1cc([C@@H]2c3cc4c(c(O)c3C[C@H]3COC(=O)[C@@H]32)OCO4)cc(OC)c1OC`, the Kd is > 4 mM (inactive).
Consider `CC12CN([N+](=O)[O-])C3(C(N)=O)CC1CCC23C` (configuration not stated), for which the Kd was > 4 mM (inactive).
For `Cc1nnsc1C(=O)Nc1ccccn1`, the Kd was > 4 mM (inactive).
In the case of `CN(C)S(=O)(=O)c1ccccc1C#N`, the Kd was > 4 mM (inactive).
The same measure for `O=c1/c(=C/c2cccs2)sc2ncnn12`: > 4 mM (inactive).

The values are drawn from PubChem BioAssay AID1648 (Sanford-Burnham Center for Chemical Genomics, 2009).
